Test results reported in ChEMBL document CHEMBL1137376 (J Med Chem, 2006).
The source made the active and inactive calls. The rule behind the calls is not given here. Non-standard residues stand in square brackets, D forms with d. Residues, ends and D or L forms follow the SMILES beside them. Phe(4-NH2) = Nc1ccc(C[C@H](N)C(=O)O)cc1

How the values were obtained:
[1] = target: T1, Angiotensin II receptor (AT-1) type-1 (Rattus norvegicus, UniProt P29089+P25095); experiment: Displacement of [125I]Ang2 from AT1 receptor in rat liver membrane; assay type: cell membranes
T1 sequence (P29089 whole entry): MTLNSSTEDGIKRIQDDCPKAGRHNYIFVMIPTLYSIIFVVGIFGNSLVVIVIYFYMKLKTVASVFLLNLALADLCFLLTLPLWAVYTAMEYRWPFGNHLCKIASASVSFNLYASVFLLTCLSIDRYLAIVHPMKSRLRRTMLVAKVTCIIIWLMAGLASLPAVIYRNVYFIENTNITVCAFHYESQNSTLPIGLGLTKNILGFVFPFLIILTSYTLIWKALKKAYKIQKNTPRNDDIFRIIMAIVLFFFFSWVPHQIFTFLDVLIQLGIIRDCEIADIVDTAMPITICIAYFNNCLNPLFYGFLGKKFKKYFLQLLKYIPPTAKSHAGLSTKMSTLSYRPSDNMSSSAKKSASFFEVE
T1 sequence (P25095 whole entry): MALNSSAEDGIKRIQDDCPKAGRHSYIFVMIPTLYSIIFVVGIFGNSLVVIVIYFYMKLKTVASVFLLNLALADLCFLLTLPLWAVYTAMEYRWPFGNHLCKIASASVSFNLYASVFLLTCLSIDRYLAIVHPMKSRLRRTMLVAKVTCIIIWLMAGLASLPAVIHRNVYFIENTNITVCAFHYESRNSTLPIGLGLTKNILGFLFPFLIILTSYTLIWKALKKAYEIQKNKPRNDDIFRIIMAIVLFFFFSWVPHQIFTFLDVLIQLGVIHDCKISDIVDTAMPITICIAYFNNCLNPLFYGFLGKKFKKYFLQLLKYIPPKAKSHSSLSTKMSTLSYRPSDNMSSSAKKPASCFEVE

[2] = target: T2, Type-1 angiotensin II receptor (Oryctolagus cuniculus) (UniProt P34976); experiment: Agonist activity at AT1 receptor measured as contraction of rabbit thoracic aorta at 3.0 nM to 3.0 uM; assay type: functional, tissue-based
T2 sequence (whole entry): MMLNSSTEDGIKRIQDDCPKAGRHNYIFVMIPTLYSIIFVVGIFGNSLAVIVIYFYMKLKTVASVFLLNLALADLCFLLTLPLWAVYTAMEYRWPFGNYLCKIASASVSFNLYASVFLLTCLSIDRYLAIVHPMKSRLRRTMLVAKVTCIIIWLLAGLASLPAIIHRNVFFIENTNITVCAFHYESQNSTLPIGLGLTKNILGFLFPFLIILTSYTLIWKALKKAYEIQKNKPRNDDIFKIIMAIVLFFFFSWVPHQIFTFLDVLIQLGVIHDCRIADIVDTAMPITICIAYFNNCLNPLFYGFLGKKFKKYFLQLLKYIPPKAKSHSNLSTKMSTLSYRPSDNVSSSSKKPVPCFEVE

Row | SMILES | Ki [1] [µM] | Activity [2]
1 | CC[C@H](C)[C@@H]1Nc2c(Cc3ccc(O)cc3)cc(NC(=O)[C@H](CCCN=C(N)N)NC(=O)[C@@H](N)CC(=O)O)cc2CN(CC(=O)N[C@@H](Cc2c[nH]cn2)C(=O)N2CCC[C@H]2C(=O)N[C@@H](Cc2ccccc2)C(=O)O)C1=O | 1.668 | 
2 | CC[C@H](C)[C@@H]1Nc2c(Cc3ccc(O)cc3)cc(NC(=O)[C@@H](NC(=O)[C@H](CCCN=C(N)N)NC(=O)[C@@H](N)CC(=O)O)C(C)C)cc2CN(CC(=O)N[C@@H](Cc2c[nH]cn2)C(=O)N2CCC[C@H]2C(=O)N[C@@H](Cc2ccccc2)C(=O)O)C1=O | 0.0149 | inactive
3 | CC[C@H](C)[C@H](NC(=O)[C@H](Cc1ccc(O)cc1)NC(=O)[C@@H](NC(=O)[C@H](CCCN=C(N)N)NC(=O)[C@@H](N)CC(=O)O)C(C)C)C(=O)N[C@@H](Cc1ccc(N)cc1)C(=O)N1CCC[C@H]1C(=O)N[C@@H](Cc1ccccc1)C(=O)O (H-DRVYI[Phe(4-NH2)]PF-OH) | > 10 | 
4 | CC[C@H](C)[C@@H]1Nc2c(Cc3ccc(O)cc3)cc(NC(=O)[C@H](CCCN=C(N)N)NC(=O)[C@@H](N)CC(=O)O)cc2CN(CC(=O)N2CCC[C@H]2C(=O)N[C@@H](Cc2ccccc2)C(=O)O)C1=O | 2.108 | 
